For data set [1] the following is noted: cited from earlier work.
For data set [2], the system named is human promyelocytic leukemia cells (HL60). Nature of the data set: MTT cytotoxicity test, HL60. It is filed as cell-based. Conditions: read-out: IC50 HL60. How it is done: (§1) The cells suspension solution was seeded in 96-well plates with 100 μL solution per well containing 5000-10000 cells. […] The drug-loaded liposomes and doxorubicin were separately solved in saline solutions. […] These different formulations were added 25 μl per well in increasing concentrations to the wells of the 96-well plate. The cells were allowed to grow for 24 hours before adding 31.5 μl MTT (5 mg/mL) per well. Finally, about 4 hours later, all of the culture medium was removed and the precipitates were dissolved in 200 μl dimethyl sulfoxide (DMSO). […] The above tests were repeated three times for each group and each concentration has four wells. […] The IC50 values were calculated by IC50.exe software.

In data set [3] the test system is doxorubicin-resistant human breast cancer MCF-7 (MCF-7/ADR). Put plainly: MTT cytotoxicity test, MCF-7/ADR. It is filed as cell-based. Conditions: NCI/ADR-RES, read-out: IC50 MCF-7/ADR. How it is done: as §1
(In general: Tetrazolium dyes change colour on reduction, which living cells bring about.)

Data set [4] deals with human breast cancer cells (MCF-7). Nature of the data set: MTT cytotoxicity test, MCF-7. Conditions: read-out: IC50 MCF-7. It is filed as cell-based. As to the method:
as §1

The test system of data set [5] is doxorubicin-resistance human promyelocytic leukemia cell (HL60/ADR). Put plainly: MTT cytotoxicity test, HL60/ADR. It is filed as cell-based. Conditions: read-out: IC50 HL60/ADR. As to the method:
as §1

Setting [6] is: MTT, 24 hours drug exposure, concentrations based on the amount of doxorubicin.

Among the data in patent US20130189352A1 (ZHEJIANG UNIVERSITY, priority 2011, published 2013) are PKa and IC50 values, retold here.

≈ marks a conversion by molar mass, not a printed value. Where two headings read alike, the source gives them in different places.

On to `COc1cccc2c1C(=O)c1c(O)c3c(c(O)c1C2=O)C[C@@](O)(C(=O)CO)C[C@@H]3O[C@H]1C[C@H](N)[C@H](O)[C@H](C)O1` [Control 1, doxorubicin], for which, in data set [1], the PKa is 4.0. In addition, the IC50 was 0.4 µg/mL (≈ 0.736 µM) in data set [2] (HL-60, MTT, 24 hours drug exposure, concentrations based on the amount of doxorubicin); 15.7 µg/mL (≈ 28.9 µM) in data set [3] (setting [6]); 0.4 µg/mL (≈ 0.736 µM) in data set [4] (MCF7, MTT, 24 hours drug exposure, concentrations based on the amount of doxorubicin); 13.6 µg/mL (≈ 25 µM) in data set [5] (setting [6]).

Take `CCN(CC)CCCC(C)Nc1ccnc2cc(Cl)ccc12` (stereo not drawn) [Control 2, chloroquine]: the IC50 in data set [2] (HL-60, 24 h) stood at 17.3 µg/mL (≈ 54.1 µM); in data set [3] (24 h), 23.3 µg/mL (≈ 72.8 µM); in data set [4] (MCF7, 24 h), 18.1 µg/mL (≈ 56.6 µM); in data set [5] (24 h), 11.2 µg/mL (≈ 35 µM).
